Measured values as given in patent publication US10105357B2, “Indication of antibiotic drugs for preparation of cancer inhibition pharmaceutical composition” (LAUNX BIOMEDICAL CO., LTD., priority 2014, dated 2018).
Read-outs that look alike come from different tables or passages of the source.

Tests used:
Format in all cases: cell-based, human
[1] = tested on: C-33A (Cervical carcinoma); test: Cell viability analysis, cervical cancer C-33A; conditions: Homo sapiens, C-33-A, 72 h, read-out: The results of antibiotic drug inhibiting cancer cell lines (cell viability analysis), C-33A
[2] = tested on: HepG2 (Hepatocellular Carcinoma); test: Cell viability analysis, hepatic cancer HepG2; conditions: Homo sapiens, HepG2, 72 h
[3] = tested on: U-2OS; test: Cell viability analysis, osteosarcoma U-2OS; conditions: Homo sapiens, U2OS, 72 h, read-out: The results of antibiotic drug inhibiting cancer cell lines (cell viability analysis), U2OS
[4] = tested on: A375 (Amelanotic Melanoma); test: Cell viability analysis, skin cancer A375; conditions: Homo sapiens, A-375, 72 h
[5] = tested on: NIH: OVCAR-3; test: Cell viability analysis, ovarian cancer NIH: OVCAR-3; conditions: Homo sapiens, OVCAR-3, 72 h, read-out: The results of antibiotic drug inhibiting cancer cell lines (cell viability analysis), NIH-OVCAR-3
[6] = tested on: BxPC-3; test: Cell viability analysis, pancreatic cancer BxPC-3; conditions: Homo sapiens, BXPC-3, 72 h, read-out: The results of antibiotic drug inhibiting cancer cell lines (cell viability analysis), BxPC-3
[7] = tested on: MKN-45 (Gastric Adenocarcinoma); test: Cell viability analysis, gastric cancer MKN-45; conditions: Homo sapiens, MKN-45, 72 h
[8] = tested on: HL-60 (Acute Promyelocytic Leukemia); test: Cell viability analysis, leukemia HL-60; conditions: Homo sapiens, HL-60, 72 h, read-out: cell viability (survival rate), HL-60, drug 10 μM, 72 hours, WST-1, OD450 nm
[9] = tested on: TSGH-8301 (Urinary Bladder Carcinoma); test: Cell viability analysis, bladder cancer TSGH-8301; conditions: Homo sapiens, 72 h
[10] = tested on: AGS (Gastric Adenocarcinoma); test: Cell viability analysis, gastric cancer AGS; conditions: Homo sapiens, 72 h
[11] = tested on: cancer cell lines; test: Cell viability analysis (WST-1) on cancer cell lines; conditions: drug 10 μM, 72 hours, WST-1; Table 3
[12] = tested on: BCC (basal cell carcinoma); test: Cell viability analysis, skin cancer BCC; conditions: Homo sapiens, 72 h, read-out: The results of antibiotic drug inhibiting cancer cell lines (cell viability analysis), BCC
[13] = tested on: MCF7 (Mammary Gland, Adenocarcinoma); test: Cell viability analysis, breast cancer MCF7; conditions: Homo sapiens, MCF7, 72 h
[14] = tested on: HeLa (Cervix Adenocarcinoma); test: Cell viability analysis, cervical cancer HeLa; conditions: Homo sapiens, HeLa, 72 h
[15] = tested on: T24; test: Cell viability analysis, bladder cancer T24; conditions: Homo sapiens, T-24, 72 h, read-out: The results of antibiotic drug inhibiting cancer cell lines (cell viability analysis), T24
[16] = tested on: TOV-21G; test: Cell viability analysis, ovarian cancer TOV-21G; conditions: Homo sapiens, TOV21G, 72 h, read-out: The results of antibiotic drug inhibiting cancer cell lines (cell viability analysis), TOV-21G
[17] = tested on: AsPC-1; test: Cell viability analysis, pancreatic cancer AsPC-1; conditions: Homo sapiens, ASPC1, 72 h, read-out: The results of antibiotic drug inhibiting cancer cell lines (cell viability analysis), AsPC-1
[18] = tested on: SAS (Tongue squamous cell carcinoma); test: Cell viability analysis, tongue cancer SAS; conditions: Homo sapiens, 72 h, read-out: The results of antibiotic drug inhibiting cancer cell lines (cell viability analysis), SAS
[19] = tested on: LoVo (Colorectal Adenocarcinoma); test: Cell viability analysis, colon cancer LoVo; conditions: Homo sapiens, LoVo, 72 h
[20] = tested on: HI650 (Lung Adenocarcinoma); test: Cell viability analysis, lung cancer HI650; conditions: Homo sapiens, NCI-H1650, 72 h
[21] = tested on: Hep3B (hepatocellular carcinoma); test: Cell viability analysis, hepatic cancer Hep3B; conditions: Homo sapiens, Hep3B, 72 h, read-out: The results of antibiotic drug inhibiting cancer cell lines (cell viability analysis), Hep3B
[22] = tested on: MDA-MB-231 (Mammary Gland, Adenocarcinoma); test: Cell viability analysis, breast cancer MDA-MB-231; conditions: Homo sapiens, MDA-MB-231, 72 h, read-out: The results of antibiotic drug inhibiting cancer cell lines (cell viability analysis), MDA-MB231
[23] = tested on: A549 (Lung Adenocarcinoma); test: Cell viability analysis, lung cancer A549; conditions: Homo sapiens, A549, 72 h
[24] = tested on: 786-O (Renal adenocarcinoma); test: Cell viability analysis, renal cancer 786-O; conditions: Homo sapiens, 786-0, 72 h, read-out: The results of antibiotic drug inhibiting cancer cell lines (cell viability analysis), 786-O
[25] = read-out: The results of antibiotic drug inhibiting cancer cell lines (cell viability analysis), HepG2, HepG2, repeated experiment
[26] = read-out: cell viability (survival rate), HepG2, drug 10 μM, 72 hours, WST-1, OD450 nm
[27] = read-out: The results of antibiotic drug inhibiting cancer cell lines (cell viability analysis), A375, A375, repeated experiment
[28] = read-out: cell viability (survival rate), A375, drug 10 μM, 72 hours, WST-1, OD450 nm
[29] = read-out: The results of antibiotic drug inhibiting cancer cell lines (cell viability analysis), MKN-45, MKN-45, repeated experiment
[30] = read-out: cell viability (survival rate), MKN-45, drug 10 μM, 72 hours, WST-1, OD450 nm
[31] = read-out: The results of antibiotic drug inhibiting cancer cell lines (cell viability analysis), TSGH-8301, TSGH-8301, repeated experiment
[32] = read-out: cell viability (survival rate), TSGH, drug 10 μM, 72 hours, WST-1, OD450 nm
[33] = read-out: The results of antibiotic drug inhibiting cancer cell lines (cell viability analysis), AGS, repeated experiment
[34] = read-out: cell viability (survival rate), AGS, drug 10 μM, 72 hours, WST-1, OD450 nm
[35] = read-out: The results of antibiotic drug inhibiting cancer cell lines (cell viability analysis), MCF-7, MCF-7, repeated experiment
[36] = read-out: cell viability (survival rate), MCF7, drug 10 μM, 72 hours, WST-1, OD450 nm
[37] = read-out: The results of antibiotic drug inhibiting cancer cell lines (cell viability analysis), HeLa, repeated experiment
[38] = read-out: cell viability (survival rate), HeLa, drug 10 μM, 72 hours, WST-1, OD450 nm
[39] = read-out: The results of antibiotic drug inhibiting cancer cell lines (cell viability analysis), LoVo, repeated experiment
[40] = read-out: cell viability (survival rate), LoVo, drug 10 μM, 72 hours, WST-1, OD450 nm
[41] = read-out: The results of antibiotic drug inhibiting cancer cell lines (cell viability analysis), H1650, H1650, repeated experiment
[42] = read-out: cell viability (survival rate), H1650, drug 10 μM, 72 hours, WST-1, OD450 nm
[43] = read-out: The results of antibiotic drug inhibiting cancer cell lines (cell viability analysis), A549, A549, repeated experiment
[44] = read-out: cell viability (survival rate), A549, drug 10 μM, 72 hours, WST-1, OD450 nm

Row | SMILES | viability at 10 µM [1] [%] | viability at 10 µM [2, 25] [%] | viability at 10 µM [2, 26] [%] | viability at 10 µM [3] [%] | viability at 10 µM [4, 27] [%] | viability at 10 µM [4, 28] [%] | viability at 10 µM [5] [%] | viability at 10 µM [6] [%] | viability at 10 µM [7, 29] [%] | viability at 10 µM [7, 30] [%] | viability at 10 µM [8] [%] | viability at 10 µM [9, 31] [%] | viability at 10 µM [9, 32] [%] | viability at 10 µM [10, 33] [%] | viability at 10 µM [10, 34] [%] | inhibition effect on different cancer cell lines [11] | viability at 10 µM [12] [%] | viability at 10 µM [13, 35] [%] | viability at 10 µM [13, 36] [%] | viability at 10 µM [14, 37] [%] | other results
1 | N=C(N)c1ccc(OCCCCCOc2ccc(C(=N)N)cc2)cc1 [Pentamidine] | 65.7 | 69.1 | 76.4 | 43.9 | 49.8 | 38.2 | 90.9 | 55 | 97.3 | 86.3 | 57.8 | 82.7 | 59.3 | 92.4 | 50.6 | significant inhibition effect | 45.8 | 60.5 | 68.5 | 44.6 | viability at 10 µM [14, 38]: 55.9%; viability at 10 µM [15]: 123%; viability at 10 µM [16]: 82.9%; viability at 10 µM [17]: 66.2%; viability at 10 µM [18]: 50.9%; viability at 10 µM [19, 39]: 63.4%; viability at 10 µM [19, 40]: 74.4%; viability at 10 µM [20, 41]: 68.5%; viability at 10 µM [20, 42]: 65.8%; viability at 10 µM [21]: 72%; viability at 10 µM [22]: 79%; viability at 10 µM [23, 43]: 35.4%; viability at 10 µM [23, 44]: 51.8%; viability at 10 µM [24]: 67.3%
2 | O=c1[nH]c(=O)n([C@H]2C[C@H](O)[C@@H](CO)O2)cc1C(F)(F)F [Trifluridine (Viroptic), Trifluridine] | 66.5 | 85.6 | 90.2 | 61.2 | 59.4 | 48.6 | 105 | 73.1 | 89.5 | 43.6 | 88.9 | 86.4 | 51.3 | 83.2 | 64.4 | significant inhibition effect | 83.3 | 79.6 | 36.3 | 86.9 | viability at 10 µM [14, 38]: 51.8%; viability at 10 µM [15]: 55.4%; viability at 10 µM [16]: 81.4%; viability at 10 µM [17]: 62.1%; viability at 10 µM [18]: 33.5%; viability at 10 µM [19, 39]: 62.5%; viability at 10 µM [19, 40]: 72.1%; viability at 10 µM [20, 41]: 78%; viability at 10 µM [20, 42]: 71%; viability at 10 µM [21]: 77.6%; viability at 10 µM [22]: 75.1%; viability at 10 µM [23, 43]: 61.6%; viability at 10 µM [23, 44]: 36.5%; viability at 10 µM [24]: 37.9%
